From patent US9095138B2, “Isoxazoline insecticides” (E.I. du Pont de Nemours and Company, priority 2007, dated 2015)

Assays:
[1] = test system: diamondback moth (Plutella xylostella); test: Test A: control of diamondback moth on radish plant, foliar spray; format: in vivo; conditions: sprayed at 50 ppm; neonate larvae on radish; assessed after 6 days; replicated three times
Excerpt: For evaluating control of diamondback moth (Plutella xylostella) the test unit consisted of a small open container with a 12-14-day-old radish plant inside. This was pre-infested with about 50 neonate larvae that were dispensed into the test unit via corn-cob grits using a bazooka inoculator. The larvae moved onto the test plant after being dispensed into the test unit.
(§1) Test compounds were formulated using a solution containing 10% acetone, 90% water and 300 ppm X-77™ Spreader Lo-Foam Formula non-ionic surfactant containing alkylarylpolyoxyethylene, free fatty acids, glycols and isopropanol (Loveland Industries, Inc. Greeley, Colo., USA). The formulated compounds were applied in 1 mL of liquid through a SUJ2 atomizer nozzle with ⅛ JJ custom body (Spraying Systems Co. Wheaton, Ill., USA) positioned 1.27 cm (0.5 inches) above the top of each test unit. All experimental compounds in these tests were sprayed at 50 ppm, and the test was replicated three times. After spraying of the formulated test compound, each test unit was allowed to dry for 1 h and then a black, screened cap was placed on top. The test units were held for 6 days in a growth chamber at 25° C. and 70% relative humidity. Plant feeding damage was then visually assessed based on foliage consumed and a pest mortality rating was also counted and calculated for each test unit.

[2] = test system: western flower thrips (Frankliniella occidentalis); test: Test E: control of western flower thrips on Soleil bean plant, contact and/or systemic; format: in vivo; conditions: adult thrips, assessed after 6 days, replicated three times
Procedure: as §1
For evaluating control of the western flower thrips (Frankliniella occidentalis) through contact and/or systemic means, the test unit consisted of a small open container with a 5-7 day old Soleil Bean plant inside. Test compounds were formulated and sprayed as described for Test A. All experimental compounds in these tests were sprayed at 250 or 50 ppm as noted, and the test was replicated three times. After spraying, the test units were allowed to dry for 1 hour and then 22-27 adult thrips were added to each unit and then a black, screened cap was placed on top. The test units were held for 6 days at 25° C. and 45-55% relative humidity. A mortality rating was assessed along with a plant damage rating for each test unit.

Row | Compound | control efficacy (feeding damage or mortality): very good to excellent levels [1] | control efficacy (feeding damage or mortality): very good to excellent levels ([2]; sprayed at 50 ppm) | control efficacy (feeding damage or mortality): very good to excellent levels ([2]; sprayed at 250 ppm)
1 | O=C(NC(C(=O)O)c1ccccc1)c1ccc(C2=NOC(c3cc(Cl)cc(Cl)c3)(C(F)(F)F)C2)c2ccccc12 (mixture of isomers) [Compound 5] | 20% or less feeding damage or 80% or more mortality | – | –
2 | CC(NC(=O)c1ccc(C2=NOC(c3cc(Cl)cc(OC(F)(F)F)c3)(C(F)(F)F)C2)c2ccccc12)C(=O)O (mixture of isomers) [Compound 35] | 20% or less feeding damage or 80% or more mortality | – | –
3 | CC(NC(=O)c1ccc(C2=NOC(c3cc(Cl)cc(OCC(F)(F)F)c3)(C(F)(F)F)C2)c2ccccc12)C(=O)O (mixture of isomers) [Compound 37] | 20% or less feeding damage or 80% or more mortality | – | –
4 | CN(CCCNC(=O)c1ccc(C2=NOC(c3cc(Cl)cc(Cl)c3)(C(F)(F)F)C2)c2ccccc12)C(=O)OC(C)(C)C (racemic) [Compound 3] | 20% or less feeding damage or 80% or more mortality | 20% or less feeding damage or 80% or more mortality | 20% or less feeding damage or 80% or more mortality
5 | CC(C)(NC(=O)c1ccc(C2=NOC(c3cc(Cl)cc(Cl)c3)(C(F)(F)F)C2)c2ccccc12)C(=O)O (racemic) [Compound 6] | 20% or less feeding damage or 80% or more mortality | 20% or less feeding damage or 80% or more mortality | 20% or less feeding damage or 80% or more mortality
6 | O=C(O)CCNC(=O)c1ccc(C2=NOC(c3cc(Cl)cc(Cl)c3)(C(F)(F)F)C2)c2ccccc12 (racemic) [Compound 7] | 20% or less feeding damage or 80% or more mortality | – | –
7 | O=C(O)CNC(=O)c1ccc(C2=NOC(c3cc(Cl)c(Cl)c(Cl)c3)(C(F)(F)F)C2)c2ccccc12 (racemic) [Compound 8] | 20% or less feeding damage or 80% or more mortality | – | 20% or less feeding damage or 80% or more mortality
8 | CS(=O)(=O)NC(=O)c1ccc(C2=NOC(c3cc(Cl)cc(Cl)c3)(C(F)(F)F)C2)c2ccccc12 (racemic) [Compound 10] | 20% or less feeding damage or 80% or more mortality | – | –
9 | O=C(O)CNC(=O)c1ccc(C2=NOC(c3cc(Cl)cc(Cl)c3)(C(F)(F)F)C2)c2ccccc12 (racemic) [Compound 12] | 20% or less feeding damage or 80% or more mortality | – | –
10 | O=C([O-])CNC(=O)c1ccc(C2=NOC(c3cc(Cl)cc(Cl)c3)(C(F)(F)F)C2)c2ccccc12.[Na+] (racemic) [Compound 13] | 20% or less feeding damage or 80% or more mortality | – | –
11 | O=C(O)CNC(=O)c1ccc(C2=NOC(c3cc(Br)cc(C(F)(F)F)c3)(C(F)(F)F)C2)c2ccccc12 (racemic) [Compound 23] | 20% or less feeding damage or 80% or more mortality | – | –
12 | CC(C)=NOC(=O)CNC(=O)c1ccc(C2=NOC(c3cc(C(F)(F)F)cc(C(F)(F)F)c3)(C(F)(F)F)C2)c2ccccc12 (racemic) [Compound 25] | 20% or less feeding damage or 80% or more mortality | – | –
13 | O=C(O)CNC(=O)c1ccc(C2=NOC(c3cc(Cl)cc(C(F)(F)F)c3)(C(F)(F)F)C2)c2ccccc12 (racemic) [Compound 26] | 20% or less feeding damage or 80% or more mortality | – | 20% or less feeding damage or 80% or more mortality
14 | O=C(O)CNC(=O)c1ccc(C2=NOC(c3cc(Cl)cc(OC(F)(F)F)c3)(C(F)(F)F)C2)c2ccccc12 (racemic) [Compound 34] | 20% or less feeding damage or 80% or more mortality | – | –
15 | CC(C)[C@@H](NC(=O)c1ccc(C2=NOC(c3cc(C(F)(F)F)cc(C(F)(F)F)c3)(C(F)(F)F)C2)c2ccccc12)C(=O)O (stereo partly drawn) [Compound 39] | 20% or less feeding damage or 80% or more mortality | – | –
16 | CC(C)(NC(=O)c1ccc(C2=NOC(c3cc(Cl)cc(Cl)c3)(C(F)(F)F)C2)c2ccccc12)C(=O)NCC1CC1 (stereo not drawn) [Compound 43] | 20% or less feeding damage or 80% or more mortality | 20% or less feeding damage or 80% or more mortality | 20% or less feeding damage or 80% or more mortality
17 | O=C(CNC(=O)c1ccc(C2=NOC(c3cc(Cl)cc(Cl)c3)(C(F)(F)F)C2)c2ccccc12)NCc1ccccn1 (stereo not drawn) [Compound 45] | 20% or less feeding damage or 80% or more mortality | – | 20% or less feeding damage or 80% or more mortality
18 | O=C(CNC(=O)c1ccc(C2=NOC(c3cc(Cl)cc(Cl)c3)(C(F)(F)F)C2)c2ccccc12)Nc1ccc(C(F)(F)F)cc1 (stereo not drawn) [Compound 46] | 20% or less feeding damage or 80% or more mortality | – | –
19 | CSCCNC(=O)CNC(=O)c1ccc(C2=NOC(c3cc(Cl)cc(Cl)c3)(C(F)(F)F)C2)c2ccccc12 (stereo not drawn) [Compound 48] | 20% or less feeding damage or 80% or more mortality | – | 20% or less feeding damage or 80% or more mortality
20 | CSCCNC(=O)CNC(=O)c1ccc(C2=NOC(c3cccc(Br)c3)(C(F)(F)F)C2)c2ccccc12 (stereo not drawn) [Compound 57] | 20% or less feeding damage or 80% or more mortality | – | –
21 | O=C(CNC(=O)c1ccc(C2=NOC(c3cccc(OC(F)(F)F)c3)(C(F)(F)F)C2)c2ccccc12)NCc1ccccn1 (stereo not drawn) [Compound 59] | 20% or less feeding damage or 80% or more mortality | – | –
22 | O=C(CNC(=O)c1ccc(C2=NOC(c3cc(F)cc(F)c3)(C(F)(F)F)C2)c2ccccc12)NC1CC1 (stereo not drawn) [Compound 62] | 20% or less feeding damage or 80% or more mortality | – | –
23 | O=C(CNC(=O)c1ccc(C2=NOC(c3cccc(F)c3)(C(F)(F)F)C2)c2ccccc12)NC1CC1 (stereo not drawn) [Compound 63] | 20% or less feeding damage or 80% or more mortality | – | –
24 | O=C(NCC(=O)N1CCCCC1)c1ccc(C2=NOC(c3cc(Cl)cc(Cl)c3)(C(F)(F)F)C2)c2ccccc12 (stereo not drawn) [Compound 89] | 20% or less feeding damage or 80% or more mortality | – | 20% or less feeding damage or 80% or more mortality
25 | CCS(=O)(=O)N1CCN(C(=O)CNC(=O)c2ccc(C3=NOC(c4cccc(C(F)(F)F)c4)(C(F)(F)F)C3)c3ccccc23)CC1 (stereo not drawn) [Compound 92] | 20% or less feeding damage or 80% or more mortality | – | –
26 | COC(=O)[C@@H]1CCCN1C(=O)c1ccc(C2=NOC(c3cc(Cl)cc(Cl)c3)(C(F)(F)F)C2)c2ccccc12 (stereo partly drawn) [Compound 97] | 20% or less feeding damage or 80% or more mortality | – | –
27 | COC(=O)[C@H]1CCCN1C(=O)c1ccc(C2=NOC(c3cc(Cl)cc(Cl)c3)(C(F)(F)F)C2)c2ccccc12 (stereo partly drawn) [Compound 98] | 20% or less feeding damage or 80% or more mortality | – | 20% or less feeding damage or 80% or more mortality
28 | O=C(O)[C@@H]1CCCN1C(=O)c1ccc(C2=NOC(c3cc(Cl)cc(Cl)c3)(C(F)(F)F)C2)c2ccccc12 (stereo partly drawn) [Compound 99] | 20% or less feeding damage or 80% or more mortality | – | –
29 | CNC(=O)[C@@H]1CCCN1C(=O)c1ccc(C2=NOC(c3cc(Cl)cc(Cl)c3)(C(F)(F)F)C2)c2ccccc12 (stereo partly drawn) [Compound 103] | 20% or less feeding damage or 80% or more mortality | – | –
30 | CCNC(=O)[C@@H]1CCCN1C(=O)c1ccc(C2=NOC(c3cc(Cl)cc(Cl)c3)(C(F)(F)F)C2)c2ccccc12 (stereo partly drawn) [Compound 105] | 20% or less feeding damage or 80% or more mortality | – | –
